Tests used:
[1] = molecular target: T1, human KDR enzyme (cytoplasmic domain, GST fusion) (Homo sapiens, UniProt P35968); assay: Phosphorylation of substrate by the KDR enzyme in vitro, scintillation technique; assay type: biochemical; conditions: 2 μM cold ATP, PLCγ SH2-SH3 substrate, 1 hour at 37° C.; read-out: KDR IC 50
T1 construct: The cytoplasmic domain of the human KDR enzyme was cloned in a GST fusion form; GST; made in house; host or cells: SF21 insect cells (baculovirus)
Description: The inhibitory effect of the compounds is determined in a test of phosphorylation of substrate by the KDR enzyme in vitro by a scintillation technique (96-well plate, NEN).
The cytoplasmic domain of the human KDR enzyme was cloned in a GST fusion form into the baculovirus expression vector pFastBac. The protein was expressed in SF21 cells and purified to about 60% homogeneity.
The kinase activity of KDR is measured in 20 mM MOPS, 10 mM MgCl2, 10 mM MnCl2, 1 mM DTT, 2.5 mM EGTA, 10 mM b-glycerophosphate, pH=7.2, in the presence of 10 mM MgCl2, 100 μM Na3VO4, 1 mM NaF. 10 μl of the compound are added to 70 μl of kinase buffer containing 100 ng of KDR enzyme at 4° C. The reaction is initiated by adding 20 μl of solution containing 2 μg of substrate (SH2—SH3 fragment of PLCγ expressed in the form of a GST fusion protein), 2 μCi γ ^33P[ATP] and 2 μM cold ATP. After incubating for 1 hour at 37° C., the reaction is stopped by adding 1 volume (100 μl) of 200 mM EDTA. The incubation buffer is removed and the wells are washed three times with 300 μl of PBS. The radioactivity is measured in each well using a Top Count NXT (Packard) radioactivity counter.
The background noise is determined by measuring the radioactivity in four different wells containing radioactive ATP and the substrate alone.
A control for total activity is measured in four different wells all containing the reagents (γ^33P-[ATP], KDR and PLCγ substrate) but in the absence of compound.
The inhibition of the KDR activity with the compound of the invention is expressed as percentage inhibition of the control activity determined in the absence of compound.
The compound SU5614 (Calbiochem) (1 μM) is included in each plate as control for inhibition.

[2] = molecular target: T2, human Tie2 (intracellular domain 776-1124, GST fusion) (Homo sapiens, UniProt Q02763); assay: Phosphorylation of PLC by Tie2 (GST-Tie2), FlashPlate radioactivity test; assay type: biochemical; conditions: 2 μM cold ATP, GST-PLC substrate, 1 hour at 37° C.; read-out: TEI2 IC 50
T2 construct: the amino acids of the intracellular domain 776-1124; made in house
T2 sequence (Q02763 776-1124): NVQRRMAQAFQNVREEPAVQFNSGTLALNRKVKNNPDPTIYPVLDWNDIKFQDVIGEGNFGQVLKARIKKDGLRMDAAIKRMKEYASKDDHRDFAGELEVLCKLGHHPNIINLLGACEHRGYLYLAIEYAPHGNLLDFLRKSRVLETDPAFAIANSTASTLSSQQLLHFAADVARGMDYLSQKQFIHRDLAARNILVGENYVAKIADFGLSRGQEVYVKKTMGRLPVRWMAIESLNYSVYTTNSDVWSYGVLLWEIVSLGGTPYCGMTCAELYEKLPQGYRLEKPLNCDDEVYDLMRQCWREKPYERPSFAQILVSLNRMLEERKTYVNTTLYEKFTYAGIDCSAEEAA
Description: The coding sequence for human Tie2 corresponding to the amino acids of the intracellular domain 776-1124 was generated by PCR using the cDNA isolated from human placenta as model. This sequence was introduced into a baculovirus expression vector pFastBacGT in the form of a GST fusion protein.
The inhibitory effect of the molecules is determined in a test of phosphorylation of PLC by Tie2 in the presence of GST-Tie2 purified to about 80% homogeneity. The substrate is composed of the SH2—SH3 fragments of PLC expressed in the form of the GST fusion protein.
The kinase activity of Tie2 is measured in a 20 mM MOPS buffer, pH 7.2, containing 10 mM MgCl2, 10 mM MnCl2, 1 mM DTT, 10 mM glycero-phosphate. A reaction mixture composed of 70 μl of kinase buffer containing 100 ng of GST-Tie2 enzyme per well is deposited in a FlashPlate 96-well plate kept on ice. 10 μl of the test molecule diluted in DMSO to a concentration of 10% maximum are then added. For a given concentration, each measurement is carried out in quadruplicate. The reaction is initiated by adding 20 μl of solution containing 2 μg of GST-PLC, 2 μM of cold ATP and 1 μCi of d′^33P[ATP]. After incubating for 1 hour at 37° C., the reaction is stopped by adding 1 volume (100 μl) of EDTA at 200 mM. After removing the incubation buffer, the wells are washed three times with 300 μl of PBS. The radioactivity is measured on a Wallac MicroBeta1450.
The inhibition of the Tie2 activity is calculated and expressed as a percentage inhibition relative to the control activity determined in the absence of compound.

[3] = molecular target: T3, human FAK (Homo sapiens, UniProt Q05397); assay: FAK autophosphorylation inhibition, time-resolved fluorescence test (HTRF); assay type: biochemical; conditions: 15 μM ATP, 1 hour at 37° C.; read-out: FAK IC 50
T3 construct: The complete human FAK cDNA, whose N-terminal end was labelled with histidine, was cloned into a baculovirus expression vector pFastBac HTc; made in house
T3 sequence (Q05397 whole entry): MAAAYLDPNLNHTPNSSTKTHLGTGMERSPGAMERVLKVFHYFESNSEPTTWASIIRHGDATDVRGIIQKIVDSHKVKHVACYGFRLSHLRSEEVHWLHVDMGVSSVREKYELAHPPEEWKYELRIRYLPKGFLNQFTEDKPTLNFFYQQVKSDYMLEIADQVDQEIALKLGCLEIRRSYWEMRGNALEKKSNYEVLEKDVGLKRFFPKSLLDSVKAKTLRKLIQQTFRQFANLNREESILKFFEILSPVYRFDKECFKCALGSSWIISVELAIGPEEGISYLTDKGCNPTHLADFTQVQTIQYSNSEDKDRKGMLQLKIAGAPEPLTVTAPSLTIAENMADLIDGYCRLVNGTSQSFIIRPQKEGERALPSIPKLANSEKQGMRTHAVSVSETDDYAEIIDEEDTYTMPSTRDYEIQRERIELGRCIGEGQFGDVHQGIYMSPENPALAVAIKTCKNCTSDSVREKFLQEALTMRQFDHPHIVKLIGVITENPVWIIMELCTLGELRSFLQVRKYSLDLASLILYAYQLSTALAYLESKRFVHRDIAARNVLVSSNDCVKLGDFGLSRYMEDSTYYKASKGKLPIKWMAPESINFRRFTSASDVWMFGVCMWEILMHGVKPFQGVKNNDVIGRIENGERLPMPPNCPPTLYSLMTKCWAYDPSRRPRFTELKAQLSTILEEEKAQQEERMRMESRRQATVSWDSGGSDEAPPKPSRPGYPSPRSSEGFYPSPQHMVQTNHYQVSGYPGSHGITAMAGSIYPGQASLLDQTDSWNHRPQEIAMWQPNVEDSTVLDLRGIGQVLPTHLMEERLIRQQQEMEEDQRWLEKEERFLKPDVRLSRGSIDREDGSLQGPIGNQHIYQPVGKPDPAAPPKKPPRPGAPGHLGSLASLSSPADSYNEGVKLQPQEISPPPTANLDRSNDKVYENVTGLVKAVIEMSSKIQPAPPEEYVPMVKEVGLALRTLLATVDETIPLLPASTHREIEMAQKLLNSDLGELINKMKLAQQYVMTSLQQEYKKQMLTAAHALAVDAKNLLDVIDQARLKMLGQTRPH
Description: The inhibitory activity of the compounds on FAK is determined by a measurement of the inhibition of the autophosphorylation of the enzyme using a time-resolved fluorescence test (HTRF).
The complete human FAK cDNA, whose N-terminal end was labelled with histidine, was cloned into a baculovirus expression vector pFastBac HTc. The protein was expressed and purified at about 70% homogeneity.
The kinase activity is determined by incubating the enzyme (6.6 μg/ml) with various concentrations of test compound in a 50 mM Hepes buffer, pH=7.2, containing 10 mM MgCl2, 100 μM Na3VO4, 15 μM ATP for 1 hour at 37° C. The enzymatic reaction is stopped by adding Hepes buffer, pH=7.0, containing 0.4 mM KF, 133 mM EDTA, 0.1% BSA and the labelling is carried out, for 1 to 2 hours at room temperature, by adding to this buffer an anti-histidine antibody labelled with XL665 and a monoclonal antibody phospho-specific for tyrosine, conjugated with europium cryptate (Eu-K). The characteristics of the two fluorophores are available in G. Mathis et al., Anticancer Research, 1997, 17, pages 3011-3014. The energy transfer between the excited europium cryptate to the acceptor XL665 is proportional to the degree of autophosphorylation of FAK. The signal of long duration specific for XL-665 is measured in a Packard Discovery plate counter. All the assays are performed in duplicate and the mean of the two assays is calculated. The inhibition of the FAK autophosphorylation activity with compounds of the invention is expressed as a percentage inhibition relative to a control whose activity is measured in the absence of test compound. For the calculation of the % inhibition, the [signal at 665 nm/signal at 620 nm] ratio is considered.

T1 sequence (P35968 786-1356 limits assumed): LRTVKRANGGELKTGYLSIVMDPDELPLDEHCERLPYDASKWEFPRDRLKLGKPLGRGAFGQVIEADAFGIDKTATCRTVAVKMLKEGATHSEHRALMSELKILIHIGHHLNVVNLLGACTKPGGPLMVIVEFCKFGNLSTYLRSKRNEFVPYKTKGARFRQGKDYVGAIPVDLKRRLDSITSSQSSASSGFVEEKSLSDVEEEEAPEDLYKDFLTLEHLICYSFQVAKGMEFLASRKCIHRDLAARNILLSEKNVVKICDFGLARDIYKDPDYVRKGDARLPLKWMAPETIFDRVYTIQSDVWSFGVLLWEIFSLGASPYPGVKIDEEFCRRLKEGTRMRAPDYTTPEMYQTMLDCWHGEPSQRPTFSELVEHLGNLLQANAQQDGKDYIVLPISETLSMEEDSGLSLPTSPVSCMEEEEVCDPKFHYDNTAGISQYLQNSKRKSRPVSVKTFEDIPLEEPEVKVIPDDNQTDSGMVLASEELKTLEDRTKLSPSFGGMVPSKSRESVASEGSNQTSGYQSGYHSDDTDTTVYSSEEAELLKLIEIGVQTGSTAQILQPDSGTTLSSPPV

IC50 [1] [µM] | IC50 [2] [µM] | IC50 [3] [µM] | melting point [°C] | Compound
6.47 | 0.069 | 2.06 |  | NC(=O)c1c[nH]cc1-c1ccc(NC(=O)Nc2cc(C(F)(F)F)ccc2F)cc1 [Example 1, 4-{4-[3-(2-Fluoro-5-trifluoromethylphenyl)ureido]phenyl}-1H-pyrrole-3-carboxamide]
0.042 | 0.011 | 0.266 |  | CCCC(=O)Nc1[nH]cc(-c2ccc(NC(=O)Nc3cc(C(F)(F)F)ccc3F)cc2)c1C(N)=O [Example 5, 2-Butyrylamino-4-{4-[3-(2-fluoro-5-trifluoromethylphenyl)ureido]phenyl}-1H-pyrrole-3-carboxamide]
0.013 | 0.125 | 0.717 |  | CC(=O)Nc1[nH]cc(-c2ccc(NC(=O)Nc3ccc(C)c(C)c3)cc2)c1C(N)=O [Example 19, 2-Acetylamino-4-{4-[3-(3,4-dimethylphenyl)ureido]phenyl}-1H-pyrrole-3-carboxamide]
0.019 | 0.118 | 0.163 |  | CC(=O)Nc1[nH]cc(-c2ccc(NC(=O)Nc3ccc(OC(F)(F)F)cc3)cc2)c1C(N)=O [Example 21, 2-Acetylamino-4-{4-[3-(4-trifluoromethoxyphenyl)ureido]phenyl}-1H-pyrrole-3-carboxamide]
 |  |  | 266 | CC(=O)Nc1[nH]cc(-c2ccc(NC(=O)Nc3ccc(C)c(C(F)(F)F)c3)cc2)c1C(N)=O [Example 40, 2-Acetylamino-4-{4-[3-(4-methyl-3-trifluoromethylphenyl)ureido]phenyl}-1H-pyrrole-3-carboxamide]

Reference: patent US7592365B2, “Substituted pyrroles, compositions containing same, method for making same and use thereof” (Aventis Pharma S.A., priority 2005, dated 2009)
